Numbered stars: 1 amine (or outer) side, 2 acyl side, 3 side chain; on linkers, the order of the positions; unused ones are H or OH. Bridge positions count the residues as written; N and C are the ends. Square brackets hold non-standard residues; d marks the D form. Side chains are listed from the residue outwards. Peptide text beside a SMILES is read from it. * marks the point of attachment. C20 diacid = O=C(O)CCCCCCCCCCCCCCCCCCC(=O)*; γGlu = O=C(O)[C@H](CCC(=O)[*:2])N[*:1]; cisHyp = O=C(O)[C@@H]1C[C@H](O)CN1; Hyp = O=C(O)[C@@H]1C[C@@H](O)CN1; AEEA = NCCOCCOCC(=O)O; Inp = O=C(O)C1CCNCC1; Sar = CNCC(=O)O

The experiment has as its target T1, human amylin receptor (Homo sapiens, UniProt O60896+P30988).
T1 construct: host or cells: CHO-K1/Ga15/AMY3 cells, further stably transfected with a CRE-luciferase plasmid
T1 sequence (P30988 25-474): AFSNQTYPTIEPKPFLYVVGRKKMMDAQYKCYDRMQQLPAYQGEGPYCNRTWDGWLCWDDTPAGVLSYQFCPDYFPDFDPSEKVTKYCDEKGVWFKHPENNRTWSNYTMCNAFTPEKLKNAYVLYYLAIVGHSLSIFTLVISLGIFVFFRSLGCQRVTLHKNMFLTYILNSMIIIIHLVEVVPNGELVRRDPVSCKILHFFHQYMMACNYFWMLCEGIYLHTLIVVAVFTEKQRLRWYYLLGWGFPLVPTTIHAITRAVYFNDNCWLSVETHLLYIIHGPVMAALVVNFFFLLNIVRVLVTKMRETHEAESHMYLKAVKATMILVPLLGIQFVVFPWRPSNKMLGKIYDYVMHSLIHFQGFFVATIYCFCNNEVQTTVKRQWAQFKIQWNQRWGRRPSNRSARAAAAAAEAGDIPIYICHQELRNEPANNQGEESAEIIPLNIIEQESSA
T1 sequence (O60896 24-148 partner): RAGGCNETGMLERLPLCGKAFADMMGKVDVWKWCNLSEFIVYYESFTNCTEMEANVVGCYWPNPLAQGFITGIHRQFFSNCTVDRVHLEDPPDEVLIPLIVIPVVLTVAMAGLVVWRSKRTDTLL
Nature of the experiment: Luciferase assay of amylin derivatives in amylin receptor/CRE-luc CHO cell line. The format is cell-based. The following applies: CHO-K1/Ga15/AMY3 CRE-luc cells, 24 hours incubation, F12 medium containing 10% FBS; read-out: EC50.
Protocol: The experiment was intended to detect the activity or efficacy of the amylin derivatives on a human amylin receptor in vitro by luciferase assay.
50 μL of growth medium (F12 medium containing 10% FBS) was added into each well of a white 96-well plate, and the stably transfected amylin/CRE-lue CHO cells were inoculated into the white 96-well plate at a density of about 20,000 cells/well for activity determination.
For `CC[C@H](C)[C@H](NC(=O)[C@@H]1CCCN1C(=O)[C@H](CCCCN)NC(=O)[C@H](CC(C)C)NC(=O)[C@H](CC(N)=O)NC(=O)[C@H](CC(N)=O)NC(=O)[C@H](CO)NC(=O)[C@H](CO)NC(=O)[C@H](Cc1c[nH]cn1)NC(=O)[C@H](CCCNC(=N)N)NC(=O)[C@H](CC(C)C)NC(=O)[C@H](Cc1ccccc1)NC(=O)[C@H](CC(=O)O)NC(=O)[C@H](C)NC(=O)[C@H](CC(C)C)NC(=O)[C@H](CCCNC(=N)N)NC(=O)[C@H](CCC(N)=O)NC(=O)[C@@H](NC(=O)[C@H](C)NC(=O)[C@@H]1CSSC[C@H](NC(=O)[C@H](CCCCN)NC(=O)C2CCN(C(=O)COCCOCCNC(=O)COCCOCCNC(=O)CCCCCCCCCCCCCCCCCCC(=O)O)CC2)C(=O)N[C@@H](CC(N)=O)C(=O)N[C@@H]([C@@H](C)O)C(=O)N[C@@H](C)C(=O)N[C@@H]([C@@H](C)O)C(=O)N1)[C@@H](C)O)C(=O)N[C@@H](CC(C)C)C(=O)N1CCC[C@H]1C(=O)N1CCC[C@H]1C(=O)N[C@H](C(=O)N[C@@H](CC(N)=O)C(=O)N[C@H](C(=O)NCC(=O)N[C@@H](CO)C(=O)N[C@@H](CC(N)=O)C(=O)N[C@H](C(=O)N1C[C@H](O)C[C@H]1C(N)=O)[C@@H](C)O)C(C)C)[C@@H](C)O` [PD180] ({C20 diacid-AEEA-AEEA-Inp}-KCNTATCATQRLADFLRHSSNNLKPILPPTNVGSNT[Hyp]-NH2; disulfide 2-7), the EC50 (usually the midpoint of the concentration-response curve) stood at 0.016 nM.

Turning to `CC[C@H](C)[C@H](NC(=O)[C@@H]1CCCN1C(=O)[C@H](CCCCNC(=O)CC[C@H](NC(=O)CCCCCCCCCCCCCCCCCCC(=O)O)C(=O)O)NC(=O)[C@H](CC(C)C)NC(=O)[C@H](CC(N)=O)NC(=O)[C@H](CC(N)=O)NC(=O)[C@H](CO)NC(=O)[C@H](CO)NC(=O)[C@H](Cc1c[nH]cn1)NC(=O)[C@H](CCCNC(=N)N)NC(=O)[C@H](CC(C)C)NC(=O)[C@H](Cc1ccccc1)NC(=O)[C@H](CCC(=O)O)NC(=O)[C@H](C)NC(=O)[C@H](CC(C)C)NC(=O)[C@H](CCCNC(=N)N)NC(=O)[C@H](CCC(N)=O)NC(=O)[C@@H](NC(=O)[C@H](C)NC(=O)[C@@H]1CSSC[C@H](NC(=O)[C@@H](N)CCCNC(=N)N)C(=O)N[C@@H](CC(N)=O)C(=O)N[C@@H]([C@@H](C)O)C(=O)N[C@@H](C)C(=O)N[C@@H]([C@@H](C)O)C(=O)N1)[C@@H](C)O)C(=O)N[C@@H](CC(C)C)C(=O)N1CCC[C@H]1C(=O)N1CCC[C@H]1C(=O)N[C@H](C(=O)N[C@@H](CC(N)=O)C(=O)N[C@H](C(=O)NCC(=O)N[C@@H](CO)C(=O)N[C@@H](CC(N)=O)C(=O)N[C@H](C(=O)N1C[C@@H](O)C[C@H]1C(N)=O)[C@@H](C)O)C(C)C)[C@@H](C)O` [PD055] (H-RCNTATCATQRLAEFLRHSSNNLK([γGlu-C20 diacid])PILPPTNVGSNT[cisHyp]-NH2; disulfide 2-7), the concentration for a half-maximal effect (EC50) stood at 0.909 nM. Consider `CC[C@H](C)[C@H](NC(=O)[C@@H]1CCCN1C(=O)[C@H](CC(N)=O)NC(=O)[C@H](CC(C)C)NC(=O)[C@H](CC(N)=O)NC(=O)[C@H](CC(N)=O)NC(=O)[C@H](CO)NC(=O)[C@H](CO)NC(=O)[C@H](Cc1c[nH]cn1)NC(=O)[C@H](CCCNC(=N)N)NC(=O)[C@H](CC(C)C)NC(=O)[C@H](Cc1ccccc1)NC(=O)[C@H](CC(=O)O)NC(=O)[C@H](C)NC(=O)[C@H](CC(C)C)NC(=O)[C@H](CCCNC(=N)N)NC(=O)[C@H](CCC(N)=O)NC(=O)[C@@H](NC(=O)[C@H](C)NC(=O)[C@@H]1CSSC[C@H](NC(=O)[C@H](CCCCN)NC(=O)CC[C@H](NC(=O)CCCCCCCCCCCCCCCCCCC(=O)O)C(=O)O)C(=O)N[C@@H](CC(N)=O)C(=O)N[C@@H]([C@@H](C)O)C(=O)N[C@@H](C)C(=O)N[C@@H]([C@@H](C)O)C(=O)N1)[C@@H](C)O)C(=O)N[C@@H](CC(C)C)C(=O)N1CCC[C@H]1C(=O)N1CCC[C@H]1C(=O)N[C@H](C(=O)N[C@@H](CC(N)=O)C(=O)N[C@H](C(=O)NCC(=O)N[C@@H](CO)C(=O)N[C@@H](CC(N)=O)C(=O)N[C@H](C(=O)N1CCC[C@H]1C(N)=O)[C@@H](C)O)C(C)C)[C@@H](C)O` [PD165] ({C20 diacid-γGlu}-KCNTATCATQRLADFLRHSSNNLNPILPPTNVGSNTP-NH2; disulfide 2-7 (inferred)), for which the EC50 worked out at 0.05 nM. Take `CC[C@H](C)[C@H](NC(=O)[C@@H]1CCCN1C(=O)CN(C)C(=O)[C@H](CC(C)C)NC(=O)[C@H](CC(N)=O)NC(=O)[C@H](CC(N)=O)NC(=O)[C@H](CO)NC(=O)[C@H](CO)NC(=O)[C@H](Cc1c[nH]cn1)NC(=O)[C@H](CCCNC(=N)N)NC(=O)[C@H](CC(C)C)NC(=O)[C@H](Cc1ccccc1)NC(=O)[C@H](CC(=O)O)NC(=O)[C@H](C)NC(=O)[C@H](CC(C)C)NC(=O)[C@H](CCCNC(=N)N)NC(=O)[C@H](CCC(N)=O)NC(=O)[C@@H](NC(=O)[C@H](C)NC(=O)[C@@H]1CSSC[C@H](NC(=O)[C@H](CCCCN)NC(=O)CC[C@H](NC(=O)CCCCCCCCCCCCCCCCCCC(=O)O)C(=O)O)C(=O)N[C@@H](CC(N)=O)C(=O)N[C@@H]([C@@H](C)O)C(=O)N[C@@H](C)C(=O)N[C@@H]([C@@H](C)O)C(=O)N1)[C@@H](C)O)C(=O)N[C@@H](CC(C)C)C(=O)N1CCC[C@H]1C(=O)N1CCC[C@H]1C(=O)N[C@H](C(=O)N[C@@H](CC(N)=O)C(=O)N[C@H](C(=O)NCC(=O)N[C@@H](CO)C(=O)N[C@@H](CC(N)=O)C(=O)N[C@H](C(=O)N1CCC[C@H]1C(N)=O)[C@@H](C)O)C(C)C)[C@@H](C)O` [PD172] ({C20 diacid-γGlu}-KCNTATCATQRLADFLRHSSNNL[Sar]PILPPTNVGSNTP-NH2; disulfide 2-7 (inferred)): the EC50 is 0.075 nM. As to `CC[C@H](C)[C@H](NC(=O)[C@@H]1CCCN1C(=O)[C@H](CCCCNC(=O)CC[C@H](NC(=O)CCCCCCCCCCCCCCCCCCC(=O)O)C(=O)O)NC(=O)[C@H](CC(C)C)NC(=O)[C@H](CC(N)=O)NC(=O)[C@H](CC(N)=O)NC(=O)[C@H](CO)NC(=O)[C@H](CO)NC(=O)[C@H](Cc1c[nH]cn1)NC(=O)[C@H](CCCNC(=N)N)NC(=O)[C@H](CC(C)C)NC(=O)[C@H](Cc1ccccc1)NC(=O)[C@H](CC(=O)O)NC(=O)[C@H](C)NC(=O)[C@H](CC(C)C)NC(=O)[C@H](CCCNC(=N)N)NC(=O)[C@H](CCC(N)=O)NC(=O)[C@@H](NC(=O)[C@H](C)NC(=O)[C@@H]1CSSC[C@H](NC(=O)[C@@H](N)CCC(=O)O)C(=O)N[C@@H](CC(N)=O)C(=O)N[C@@H]([C@@H](C)O)C(=O)N[C@@H](C)C(=O)N[C@@H]([C@@H](C)O)C(=O)N1)[C@@H](C)O)C(=O)N[C@@H](CC(C)C)C(=O)N1CCC[C@H]1C(=O)N1CCC[C@H]1C(=O)N[C@H](C(=O)N[C@@H](CC(N)=O)C(=O)N[C@H](C(=O)NCC(=O)N[C@@H](CO)C(=O)N[C@@H](CC(N)=O)C(=O)N[C@H](C(=O)N1C[C@H](O)C[C@H]1C(N)=O)[C@@H](C)O)C(C)C)[C@@H](C)O` [PD080] (H-ECNTATCATQRLADFLRHSSNNLK([γGlu-C20 diacid])PILPPTNVGSNT[Hyp]-NH2; disulfide 2-7), the EC50 is 0.11 nM.
